According to US7071177B2, “P-(sulfonyl) aryl and heteroarylamines as anti-inflammatory agents” (Syntex (U.S.A.) LLC, priority 2000, dated 2006):

Row | SMILES | melting point [°C]
1 | CS(=O)(=O)CCN(Cc1ccccn1)c1ccc(S(C)(=O)=O)cc1 [1-45, 4-{N,N-[2-(methylsulfonyl)ethyl](pyridin-2-ylmethyl)amino}phenyl methyl sulfone] | 139.5 to 140.5
2 | CCOc1ccc(CN(CCS(C)(=O)=O)c2ccc(S(C)(=O)=O)c(F)c2)cc1 [1-72, (4-ethoxy-benzyl)-(3-fluoro-4-methanesulfonyl-phenyl)-(2-methanesulfonyl-ethyl)-amine] | 56 to 59
3 | COc1ccc(CNS(=O)(=O)c2ccc(N(CCS(C)(=O)=O)Cc3ccc(C)cc3)cc2)cc1 [2-1, 4-[(2-methylsulfonyl-ethyl)-(4-methyl-benzyl)amino]-N-(4-methoxy-benzyl)-benzenesulfonamide] | 85.7 to 86.6
4 | Cc1ccc(CN(CCS(C)(=O)=O)c2ccc(S(N)(=O)=O)cc2)cc1 [2-2, 4-[(2-methylsulfonyl-ethyl)-(4-methyl-benzyl)-amino]-benzenesulfonamide] | 169.1 to 170
5 | CS(=O)(=O)CCN(Cc1ccc(F)cc1F)c1ccc(S(N)(=O)=O)cc1 [2-4, 4-[(2-methylsulfonyl-ethyl)-(2,4-difluorobenzyl)-amino]-benzenesulfonamide] | 152.9 to 153.2
